Patent publication US12097380B2, “Shielding of magnetic field as a medical therapy” (Micromed Scientia, Inc., priority 2012, dated 2024)

What was measured:
[1] = test system: non-small cell lung cancer cells A549; test: In vitro growth of A549 cells in the presence of Taxol, iron shielding box vs plastic box (CCK-8 cell viability); assay type: cell-based, human
Description: (§1) The surrounding magnetic field shielding device and the plastic box used in this experiment were the same as those described in Example 2 above.
The human non-small cell lung cancer cells (A549) and human breast cancer cell (MCF-7) were supplied by the Cell Resource Center, Shanghai Institute of Life Sciences. The cells were maintained in a monolayer and were grown at 37° C. in an atmosphere of 5% CO2 with moisture in RPMI 1640 medium, supplemented with 10% fetal bovine serum. The medium also contained […] Penicillin and 100 mg/L Streptomycin. The cells at exponentially growing phase were used in the experiments.
(§2) The human non-small cell lung cancer cells (A549) or the human breast cancer cells (MCF-7) were grown in 96 well plates. The growth of non-small cell lung cancer cell line and the breast cancer cell line were investigated while being exposed to environmental magnetic field or being shielded from environmental magnetic field. Each cell culture was separated into three equal portions. The first sample was cultured in a surrounding magnetic field shielded box (an iron shielding box). The second sample was cultured in a plastic box, and the third sample was cultured in the absence of any surrounding box as a control. All of the samples were placed in the incubator with an atmosphere containing 5% CO2 and at a temperature of 37° C. The cell growth rates were examined periodically by harvesting the cells and determining cell viability using the cell counting kit-8 and microplate reader RT-6000. The experiments were continued for four to seven days depending on the cell types and the respective growth rates.
(§3) Cell count kit-8 (CCK-8) ([…] manufactured by Dojindo Molecular Technologies, Inc.) allows sensitive colorimetric assays for the determination of cell viability. […]

[2] = test system: Taxol-resistant non-small cell lung cancer cells A549-T24; test: In vitro growth of Taxol-resistant A549-T24 cells in the presence of Taxol, iron shielding box vs plastic box (CCK-8 cell viability); assay type: cell-based, human; details: for growth of A549-T24 in the iron shielding box slower than the control cultured in a plastic box: 12 nM Taxol in medium, 37° C., shielded vs unshielded
From the text: as §1
The protocol described by Kavallaris et al., J. Clin. Invest., 100(5): 1282-1293 (1997)^[13] was followed to culture taxol-resistant human lung carcinoma cells A549. The human non-small cell lung cancer cells A549 were maintained in RPMI 1640 containing 10% FBS and 1% Penicillin-Streptomycin. For inducing its resistance to Taxol, in a stepwise manner, Taxol was added into the culture medium with periodically increasing its concentration. A549 cells were initially exposed to 3 nM of Taxol, and once normal growth was achieved, cells were maintained at this concentration. In two weeks, the Taxol dose was increased by two-fold, such as 3 nM, 6 nM, 12 nM, until the final drug concentration of 24 nM was achieved to develop Taxol-resistant cells. The obtained cells were maintained at a Taxol concentration of 24 nM. These Taxol-resistant cells were named as A549-T24.
as §2, with “The experiments were continued for four to seven days depending on the cell types and the respective growth rates.” left out
as §3

[3] = test system: most sensitive non-small lung cancer cell; details: as reported by Georgiadis et al. 1997, read-out: IC50 to Taxol; cited from earlier work

IC50 ([1]; Homo sapiens, 120 h, A549, under shielding of environmental magnetic field, 5 days, read-out: IC50 of Taxol (drug concentration at which cell growth is suppressed to 50%)): ~5 nM
IC50 ([2]; Homo sapiens, 96 h, A549-T24, under shielding of surrounding magnetic field, day 4): ~10 nM
Structure (SMILES): CC(=O)O[C@H]1C(=O)[C@@]2(C)[C@H]([C@H](OC(=O)c3ccccc3)[C@]3(O)C[C@H](OC(=O)[C@H](O)[C@@H](NC(=O)c4ccccc4)c4ccccc4)C(C)=C1C3(C)C)[C@]1(OC(C)=O)CO[C@@H]1C[C@@H]2O [Taxol, Paclitaxel]
growth of A549 in the iron shielding box slower than the control cultured in a plastic box ([1]; 5 nM Taxol in medium, 37° C., 3 days of incubation, shielded vs unshielded, P<0.001): 16.3%
growth of A549 in the iron shielding box decreased in comparison to the control cultured in a plastic box ([1]; 5 nM Taxol in medium, 37° C., 5 days of incubation, shielded vs unshielded, P<0.0005): 47.3%
growth of A549-T24 in the iron shielding box slower than the control cultured in a plastic box ([2]; day 3, P<0.01): 11.2%
growth of A549-T24 in the iron shielding box slower than the control cultured in a plastic box ([2]; day 4, P<0.001): 10.7%
IC50 [3]: 9.9 nM
